How the values were obtained:
[1] = system: Pichia pastoris gcs-deletion mutants; settings: glucosylceramide synthetase deficient Pichia pastoris; cited from earlier work
[2] = system: Candida albicans gcs-deletion mutants; settings: glucosylceramide synthetase deficient Candida albicans; cited from earlier work
[3] = system: gcs- mutants of A. oryzae ToC1512; test: Tolerance to ETD151: growth in YCM with ETD151; assay type: cell-based, Aspergillus oryzae; settings: high concentrations of ETD151 (maximum 5815 mg/L), 6 days, 7 gcs- mutants
Description: (§1) Selected strains were subjected to YCM with 0-5815 mg/L ETD151 for 6 days in order to test tolerance to ETD151.
(§2) To test the tolerance to ETD151, ToC1512, BECh2 and the 7 gcs^− mutants were grown in YCM with different amounts of ETD151 (maximum 5815 mg/L). […] One of the gcs^− mutants (no. 18) was hereafter selected and named PtSL1.

Candida utilis = test: Bioassay (plate assay, growth inhibition seen as clearing zones); assay type: cell-based; settings: ETD151 expressed by BECh2 transformants (pPtSL4); Candida utilis as target organism
Description: ETD151 was diluted to 58 μg/ml in peptide dilution buffer (0.1% BSA, 0.01% Acetic Acid) and further on to 6 μg/ml and 0.6 μg/ml and used as control. Candida utilis was grown on YPD plates, A. oryzae on Cove N medium slants. An inoculum of fungal growth was resuspended in 0.1% Tween to an optical density of approx. 1 McFarland Unit. A NUNC-tube with 15 ml ⅓ PD agarose at approx. 42° C. was inoculated with approx. 6×10^6 CFU, mixed thoroughly and poured into a sterile 9 cm square dish (Falcon 351112) on a levelling table and allowed to solidify and set for 30 minutes. Ten μl of each of the peptide dilutions was added to the surface of the plate. The plates were incubated at 30° C. (or 37° C. as appropriate). The next day, growth was detected either by observing the inhibition zones by oblique illumination (or by adding 3 ml of a 3 mM MTT solution and leaving the plate for 1-2 hours at room temperature).
BECh2 was transformed with plasmid pPtSL4 and subjected to amdS medium. amdS resistant colonies were isolated as spores from single sporangies and subjected to amdS medium twice. From 45 BECh2 transformants, 43 were subjected to a Bioassay as described using Candida utilis as target organism and to SDS gel electrophoresis.

[4] = system: Aspergillus oryzae ToC1512; test: Tolerance to ETD151: growth in YCM with ETD151; assay type: cell-based; settings: YCM with different amounts of ETD151 (maximum 5815 mg/L), 6 days
Description: as §1, §2

Aspergillus oryzae BECh2 = test: Tolerance to ETD151: growth in YCM with ETD151; assay type: cell-based; settings: YCM with different amounts of ETD151 (maximum 5815 mg/L), 6 days
Description: as §1, §2

Row | Substance | susceptibility of gcs-deletion mutants [1] | susceptibility of gcs-deletion mutants [2] | growth of strain in presence of ETD151 [3] | growth inhibition in plate Bioassay (Candida utilis) | growth of strain in presence of ETD151 [4] | growth of strain in presence of ETD151 (Aspergillus oryzae BECh2)
1 | RsAFP2: antifungal defensin (QKLCQRPSGTWSGVCGNNNACKNQCIRLEKARHGSCNYVFPAHKCICYFPC; UniProt P30230 30-80, looked up) | resistant | resistant | – | – | – | –
2 | ETD151: heliomycin derivative, antifungal defensin peptide shown in SEQ ID NO: 7, expressed in Aspergillus oryzae (DKLIGSCVWGAVNYTSNCRAECKRRGYKGGHCGSFANVNCWCET; heliomycin derivative) | – | – | grew very well | clearing zones | did not grow at all | grew badly

From patent US20120196324A1, “Method for Producing an Antifungal Peptide in a Filamentous Fungal Host Cell” (NOVOZYMES A/S, priority 2007, published 2012)
